Tested on: HIV-1 (strain IIIIB)
Test: MT4 cell assay (propidium iodide readout)
Assay type: cell-based
Conditions: Human immunodeficiency virus 1, control and standard, MT4 cells, read-out: expected range of IC50 values
Method: Antiviral HIV activity and compound-induced cytotoxicity were measured in parallel by means of a propidium iodide based procedure in the human T-cell lymphotropic virus transformed cell line MT4. Aliquots of the test compounds were serially diluted in medium (RPMI 1640, 10% fetal calf serum (FCS), and gentamycin) in 96-well plates (Costar 3598) using a Cetus Pro/Pette. Exponentially growing MT4 cells were harvested and centrifuged at 1000 rpm for 10 min in a Jouan centrifuge (model CR 4 12). Cell pellets were resuspended in fresh medium (RPMI 1640, 20% FCS, 20% IL-2, and gentamycin) to a density of 5×10^5 cells/ml. […] The plates were analyzed in an automated assay instrument (Screen Machine, Idexx Laboratories). […] The assay makes use of a propidium iodide dye to estimate the DNA content of each well. • B. For MTS readout, 20 μl CellTiter 96 AQ One Solution reagent (Promega #G3582) was added to each well. At 75 minutes following the addition of MTS reagent, absobance was read at 492 nm using a Tecan Sunrise 96-well plate reader. […]
For each assay plate, the results (relative fluorescence units, rfU, or OD values) of wells containing uninfected cells or infected cells with no compound were averaged, respectively. […] Percent of cells remaining is determined by the following formula: Percent of cells remaining=(compound-treated uninfected cells, rfU, or OD values/untreated uninfected cells)×100. […]

IC50: 40 to 120 nM
Structure (SMILES): Cc1cn([C@H]2C[C@H](N=[N+]=[N-])[C@@H](CO)O2)c(=O)[nH]c1=O [3′-azido-3′-deoxythymidine]

— patent publication US6995283B2, “Benzophenones as inhibitors of reverse transcriptase” (priority 2001, dated 2006)
